Like-named read-outs stand apart in the source and are kept apart here.
Target: T1, HIV protease (Human immunodeficiency virus type 1 group M subtype B, UniProt P03366)
T1 construct: the predicted size of the protease is 99 amino acids
Test: HIV protease inhibition, fluorometric RP-HPLC assay with N-dansyl-peptide substrate
Assay type: biochemical
Conditions: for inhibitory potency (in words): comparison by stereochemistry (2S,3S versus 2R,3R) and by hexan-1-olyl versus hexanoate group; for HIV Protease IC50 values of tested Examples (estimated): *Estimated IC50 from the observed inhibition at 10 μM concentration; for IC50 (estimated): estimated from the % inhibition at 10000 nM final; for activity relative to range necessary for therapeutic development: in words
Procedure: Following synthesis, the preferred embodiment compounds were tested for HIV protease inhibition. For in vitro potency testing, the N terminus of substrate amino acid sequences were first dansylated. The amino acid sequences present in such N-dansyl-peptide substrates can include, but are not limited to native proteolytic cleavage site sequences for the HIV gag and pol polyproteins.
The prepared substrates were incubated with HIV protease and compounds of the present invention, under conditions in which the protease is catalytically active. […] Following incubation, aliquots of the incubate were analyzed with reverse phase high performance liquid chromatography (hereinafter "RP-HPLC"). Any uncoverted peptide substrate is resolved from peptide product(s) and then detected by an inline fluorescence monitor. The amount of product formed over a known time interval may then be used to calculate the activity of the enzyme under the specific assay conditions. The amount of fluorescence detected in the eluted peak from HPLC can be related to the amount of peptide in the peak by prior HPLC analysis of standardized samples. The amount of peptide in the pure, standardized samples is determined accurately by amino acid analysis.
Inhibitory potency was assessed, in vitro, according to published procedures in Tamburini et al., 1990, "A Fluorometric Assay for HIV-Protease Activity Using High-Performance Liquid Chromatography", Analytical Biochemistry, 186:363.
HIV-protease was pre-incubated with or without the inhibitor compound at 37° C. and under buffer, ionic strength and pH conditions affording optimal protease activity. An N-dansyl-peptide substrate was then added to the incubation mixture. For example the dansylated substrate could be:
N-Dansyl-Ser-Gln-Asn-Tyr-Pro-Ile-Val (SEQ ID NO: 1)
The incubation mixture was then incubated at 37° C. During the incubation, the substrate is cleaved by the protease at the Tyr-Pro peptide bond to yield N-Dansyl-Ser-Gln-Asn-Tyr (SEQ ID NO: 2). At the end of the incubation (40 min) the reaction was terminated by acidification with TFA, and the amounts of unconverted substrate and fluorescent product were detected and quantified by subsequent RP-HPLC analysis with post column fluorescence detection.
The rate of cleavage of the substrate is quantified from the amount of product formed in the known incubation time. Specific assay conditions were as follows:
Incubations (75 ul) containing the complete system without substrate were preincubated at 37° C. for 15 min prior to initiation of the protease reaction by the addition of 25 ul of stock 400 uM substrtate peptide solution. The initial component concentrations at the start of the reaction were: HIV-protease (20 ul of a dilution sufficient to produce 40 to 60% substrate cleavage in 40 min), dimethyl sulphoxide (5%v/v), N-Dansyl-Ser-Gln-Asn-Tyr- […] (SEQ ID NO: 1) (100 uM), and sodium chloride (3 M) in 150 mM mes buffer pH 6.0. After a further incubation time of 40 min at 37° C. reactions were terminated by the addition of 50 ul of 12% (v/v) tri-flouroacetic acid, and then loaded into the HPLC autosampler for analysis.
Inhibitors were added to the incubation mixtures […] to protease addition before the preincubation, as stock solutions in dimethyl suphoxide, lower concentrations of inhibitor were obtained by serial dilution of the incubation mixture containing the highest inhibitor concentration. The range of inhibitor concentrations were designed to cover the range yielding zero to 100% inhibition of protease activity. Dilution of the HIV-protease activity (so as to achieve an amount of enzyme activity in 20 ul to produce 40 to 60% substrate conversion when added to the incubation) was achieved using the following buffer: 50 mM sodium acetate buffer pH 5.2, 50 mM sodium chloride, 20 mM DL-dithiothreitol, 20% (v/v) glycerol, 0.1% (v/v) triton X-100 and 1.5 M urea. […]

[1] = Table I, NI = no inhibition at 10 μM final concentration, 37 °C, 40 min, pH 6.0, read-out: HIV Protease IC50 values of tested Examples
[2] = Table II, titrated (Dixon plot, inhibitor up to 100-10000 nM), NI = no inhibition (tested at 10000 nM), read-out: IC50 (concentration in the assay incubation which inhibits the HIV protease activity by 50%)

| Structure (SMILES) | IC50 [1] [µM] | IC50 [2] [µM] | inhibitory potency (in words) | also measured |
| --- | --- | --- | --- | --- |
| CC[C@H](C)[C@H](NC(=O)[C@@H]1CCCN1[C@H](C(=O)OC)[C@H](CC(C)C)NC(=O)OCc1ccccc1)C(=O)NCc1ccccc1 [Example 7, (2S, 3S) N-[methyl 2-(3-carbobenzyloxyamino-5-methyl-hexanoyl)]-Prolyl-Isoleucine N-Benzyl amide] | > 10 | > 10 | – | – |
| CC[C@H](C)[C@H](NC(=O)[C@@H]1CCCN1[C@@H](C(=O)OC)[C@@H](CC(C)C)NC(=O)OCc1ccccc1)C(=O)NCc1ccccc1 [Example 8] | > 10 | > 10 | – | – |
| CC[C@H](C)[C@H](NC(=O)[C@@H]1CCCN1[C@H](CO)[C@H](CC(C)C)NC(=O)OCc1ccccc1)C(=O)NCc1ccccc1 [Example 9, (2S, 3S) N-[2-(3-carbobenzyoxyamino-5-methylhexan-1-olyl)]-Prolyl-Isoleucine N-Benzyl amide] | 1.9 | – | significant inhibitor potency | – |
| CC[C@H](C)[C@H](NC(=O)[C@@H]1CCCN1[C@@H](CO)[C@@H](CC(C)C)NC(=O)OCc1ccccc1)C(=O)NCc1ccccc1 [Example 10] | > 10 | > 10 | innactive or poorly active | – |
| CC[C@H](C)[C@H](NC(=O)[C@@H]1CCCN1[C@H](C(=O)OC)[C@H](CC(C)C)NC(=O)[C@H](CC#N)NC(=O)OCc1ccccc1)C(=O)NCc1ccccc1 [Example 11a] | > 10 | > 10 | – | – |
| CC[C@H](C)[C@H](NC(=O)[C@@H]1CCCN1[C@H](C(=O)OC)[C@H](CC(C)C)NC(=O)[C@H](CC(N)=O)NC(=O)OCc1ccccc1)C(=O)NCc1ccccc1 [Example 11b] | – | – | – | HIV Protease IC50 values of tested Examples (estimated) (Table I): 15 µM; IC50 (estimated) (Table II): 15 µM |
| CC[C@H](C)[C@H](NC(=O)[C@@H]1CCCN1[C@H](CO)[C@H](CC(C)C)NC(=O)[C@H](CC(N)=O)NC(=O)OCc1ccccc1)C(=O)NCc1ccccc1 [Example 12, (2S, 3S) N-[2-(3-(N-carbobenzyloxy-asparaginyl)amino-5-methylhexan-1-olyl)]-Prolyl-Isoleucine N-Benzyl amide] | 0.125 | – | significant inhibitor potency | increase in inhibitory potency by additional Asn residue (Example 12 versus Example 9): 152 fold; activity relative to range necessary for therapeutic development: within the range necessary for therapeutic development |
| CC[C@H](C)[C@H](NC(=O)[C@@H]1CCCN1[C@H](C(=O)OC)[C@H](CC(C)C)NC(=O)[C@H](CC(N)=O)NC(=O)c1ccc2ccccc2n1)C(=O)NCc1ccccc1 [Example 14] | – | – | – | HIV Protease IC50 values of tested Examples (estimated) (Table I): > 50 µM; IC50 (estimated) (Table II): > 50 µM |
| CC[C@H](C)[C@H](NC(=O)[C@@H]1CCCN1[C@H](CO)[C@H](CC(C)C)NC(=O)[C@H](CC(N)=O)NC(=O)c1ccc2ccccc2n1)C(=O)NCc1ccccc1 [Example 15] | 0.035 | – | significant inhibitor potency | increase in inhibitory potency by N-quinaldehyde in place of N-carbo-benzyloxy (Example 15 versus Example 12): 3.6 fold; activity relative to range necessary for therapeutic development: within the range necessary for therapeutic development |
| CC[C@H](C)[C@H](NC(=O)[C@@H]1CCCN1[C@@H](C(=O)OC)[C@@H](CC(C)C)NC(=O)[C@H](CC(N)=O)NC(=O)c1ccc2ccccc2n1)C(=O)NCc1ccccc1 [Example 16, (2R, 3R) N-[2 (3-(N-guinaldyl-asparaginyl)amino-5-methyl-hexanoate)]-Prolyl-Isoleucine N-Benzyl amide] | > 10 | > 10 | – | – |
| CC[C@H](C)[C@H](NC(=O)[C@@H]1CCCN1[C@@H](CO)[C@@H](CC(C)C)NC(=O)[C@H](CC(N)=O)NC(=O)c1ccc2ccccc2n1)C(=O)NCc1ccccc1 [Example 17, (2R, 3R) N-[2-(3-(N-guinaldyl-asparaginyl)amino-5-methylhexan-1-olyl)]-Prolyl-Isoleucine N-Benzyl amide] | – | – | innactive or poorly active | HIV Protease IC50 values of tested Examples (estimated) (Table I): 15 µM; IC50 (estimated) (Table II): 15 µM |

From patent US5296604A, “Proline derivatives and compositions for their use as inhibitors of HIV protease” (priority 1992, dated 1994)
